Source: PubChem BioAssay (NCI)
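48-hour exposure; five concentrations; linearly interpolated endpoints. TGI: total growth inhibition.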

Tests used:
Assay in all cases: inhibition of tumour cell growth, NCI panel, 48 h
786-0 renal = tested on: 786-0 renal
A498 renal = tested on: A498 renal
A549 NSCLC = tested on: A549 NSCLC
ACHN renal = tested on: ACHN renal
BT-549 breast = tested on: BT-549 breast
CAKI-1 renal = tested on: CAKI-1 renal
CCRF-CEM leukemia = tested on: CCRF-CEM leukemia
COLO 205 colon = tested on: COLO 205 colon
DU-145 prostate = tested on: DU-145 prostate
EKVX NSCLC = tested on: EKVX NSCLC
HCT-116 colon = tested on: HCT-116 colon
HCT-15 colon = tested on: HCT-15 colon
HL-60(TB) leukemia = tested on: HL-60(TB) leukemia
HOP-62 NSCLC = tested on: HOP-62 NSCLC
HOP-92 NSCLC = tested on: HOP-92 NSCLC
HS 578T breast = tested on: HS 578T breast
HT29 colon = tested on: HT29 colon
IGROV1 ovarian = tested on: IGROV1 ovarian
K-562 leukemia = tested on: K-562 leukemia
KM12 colon = tested on: KM12 colon
LOX IMVI melanoma = tested on: LOX IMVI melanoma
M14 melanoma = tested on: M14 melanoma
MALME-3M melanoma = tested on: MALME-3M melanoma
MCF7 breast = tested on: MCF7 breast
MDA-MB-231 breast = tested on: MDA-MB-231 breast
MDA-MB-435 = tested on: MDA-MB-435
MDA-N = tested on: MDA-N
MOLT-4 leukemia = tested on: MOLT-4 leukemia
NCI-H23 lung = tested on: NCI-H23 lung
NCI-H460 lung = tested on: NCI-H460 lung
NCI/ADR-RES ovarian = tested on: NCI/ADR-RES ovarian
OVCAR-3 ovarian = tested on: OVCAR-3 ovarian
OVCAR-4 ovarian = tested on: OVCAR-4 ovarian
OVCAR-5 ovarian = tested on: OVCAR-5 ovarian
OVCAR-8 ovarian = tested on: OVCAR-8 ovarian
PC-3 prostate = tested on: PC-3 prostate
RPMI-8226 leukemia = tested on: RPMI-8226 leukemia
RXF 393 renal = tested on: RXF 393 renal
SF-268 CNS = tested on: SF-268 CNS
SF-295 CNS = tested on: SF-295 CNS
SF-539 CNS = tested on: SF-539 CNS
SK-MEL-2 melanoma = tested on: SK-MEL-2 melanoma
SK-MEL-28 melanoma = tested on: SK-MEL-28 melanoma
SK-MEL-5 melanoma = tested on: SK-MEL-5 melanoma
SK-OV-3 ovarian = tested on: SK-OV-3 ovarian
SN12C renal = tested on: SN12C renal
SNB-19 CNS = tested on: SNB-19 CNS
SNB-75 CNS = tested on: SNB-75 CNS
SR leukemia = tested on: SR leukemia
SW-620 colon = tested on: SW-620 colon
T-47D breast = tested on: T-47D breast
TK-10 renal = tested on: TK-10 renal
U251 CNS = tested on: U251 CNS
UACC-257 melanoma = tested on: UACC-257 melanoma
UACC-62 melanoma = tested on: UACC-62 melanoma
UO-31 renal = tested on: UO-31 renal
NCI-H226 lung = tested on: NCI-H226 lung
NCI-H522 lung = tested on: NCI-H522 lung

`NCCN1C(=O)c2cc(Cl)c(Cl)cc2C1(O)c1ccc(Cl)cc1` (stereo not given) gave a TGI (786-0 renal) of 2.96 µM, a TGI (A498 renal) of 10.2 µM and a TGI (A549 NSCLC) of 4.76 µM. For the same molecule, the TGI (ACHN renal) was 4.75 µM, the TGI (BT-549 breast) was 13.4 µM and the TGI (CAKI-1 renal) was 7.02 µM. It also gave a TGI (CCRF-CEM leukemia) of 10.1 µM, a TGI (COLO 205 colon) of 3.02 µM and a TGI (DU-145 prostate) of 6.81 µM. For the same molecule, the TGI (EKVX NSCLC) was 6.75 µM, the TGI (HCT-116 colon) was 3.09 µM and the TGI (HCT-15 colon) was 5.33 µM. For the same molecule, the TGI (HL-60(TB) leukemia) was 3.44 µM, the TGI (HOP-62 NSCLC) was 4.21 µM and the TGI (HOP-92 NSCLC) was 12.5 µM. It also gave a TGI (HS 578T breast) of 8.44 µM, a TGI (HT29 colon) of 3.81 µM and a TGI (IGROV1 ovarian) of 4.89 µM. The TGI (K-562 leukemia) was 4.09 µM, the TGI (KM12 colon) was 4.17 µM and the TGI (LOX IMVI melanoma) was 3.28 µM. The TGI (M14 melanoma) was 3.23 µM, the TGI (MALME-3M melanoma) was 3.49 µM and the TGI (MCF7 breast) was 3.73 µM. It also gave a TGI (MDA-MB-231 breast) of 3.75 µM, a TGI (MDA-MB-435) of 3.13 µM and a TGI (MDA-N) of 3.47 µM. For the same molecule, the TGI (MOLT-4 leukemia) was 5.28 µM, the TGI (NCI-H23 lung) was 6.78 µM and the TGI (NCI-H460 lung) was 3.64 µM. The TGI (NCI/ADR-RES ovarian) was 7.25 µM, the TGI (OVCAR-3 ovarian) was 4.74 µM and the TGI (OVCAR-4 ovarian) was 4.24 µM. The TGI (OVCAR-5 ovarian) was 12.2 µM, the TGI (OVCAR-8 ovarian) was 3.92 µM and the TGI (PC-3 prostate) was 19.3 µM. For the same molecule, the TGI (RPMI-8226 leukemia) was 5.39 µM, the TGI (RXF 393 renal) was 3.06 µM and the TGI (SF-268 CNS) was 6.65 µM. For the same molecule, the TGI (SF-295 CNS) was 3.9 µM, the TGI (SF-539 CNS) was 3.1 µM and the TGI (SK-MEL-2 melanoma) was 3.63 µM. For the same molecule, the TGI (SK-MEL-28 melanoma) was 3.21 µM, the TGI (SK-MEL-5 melanoma) was 2.99 µM and the TGI (SK-OV-3 ovarian) was 26.3 µM. The TGI (SN12C renal) was 13.4 µM, the TGI (SNB-19 CNS) was 7.73 µM and the TGI (SNB-75 CNS) was 8.26 µM. The TGI (SR leukemia) was 3.96 µM, the TGI (SW-620 colon) was 3.7 µM and the TGI (T-47D breast) was 4.55 µM. It also gave a TGI (TK-10 renal) of 3.53 µM, a TGI (U251 CNS) of 3.17 µM and a TGI (UACC-257 melanoma) of 3.47 µM. It also gave a TGI (UACC-62 melanoma) of 3.25 µM and a TGI (UO-31 renal) of 17.2 µM.

With `Cc1ncc(CSc2ccccc2N)c(CO)c1O` the TGI (786-0 renal) was > 100 µM, the TGI (A498 renal) was > 100 µM and the TGI (A549 NSCLC) was > 100 µM. The TGI (ACHN renal) was > 100 µM, the TGI (BT-549 breast) was > 100 µM and the TGI (CAKI-1 renal) was > 100 µM. The TGI (COLO 205 colon) was > 100 µM, the TGI (DU-145 prostate) was > 100 µM and the TGI (EKVX NSCLC) was > 100 µM. The TGI (HCT-116 colon) was > 100 µM, the TGI (HCT-15 colon) was > 100 µM and the TGI (HOP-62 NSCLC) was > 100 µM. The TGI (HOP-92 NSCLC) was > 100 µM, the TGI (HS 578T breast) was > 100 µM and the TGI (HT29 colon) was > 100 µM. The TGI (IGROV1 ovarian) was > 100 µM, the TGI (K-562 leukemia) was > 100 µM and the TGI (KM12 colon) was > 100 µM. For the same molecule, the TGI (LOX IMVI melanoma) was > 100 µM, the TGI (M14 melanoma) was > 100 µM and the TGI (MALME-3M melanoma) was > 100 µM. The TGI (MCF7 breast) was > 100 µM, the TGI (MDA-MB-231 breast) was > 100 µM and the TGI (MDA-MB-435) was > 100 µM. For the same molecule, the TGI (MDA-N) was > 100 µM, the TGI (MOLT-4 leukemia) was > 100 µM and the TGI (NCI-H226 lung) was > 100 µM. For the same molecule, the TGI (NCI-H23 lung) was > 100 µM, the TGI (NCI-H522 lung) was > 100 µM and the TGI (NCI/ADR-RES ovarian) was > 100 µM. The TGI (OVCAR-3 ovarian) was > 100 µM, the TGI (OVCAR-4 ovarian) was > 100 µM and the TGI (OVCAR-5 ovarian) was > 100 µM. For the same molecule, the TGI (OVCAR-8 ovarian) was > 100 µM, the TGI (PC-3 prostate) was > 100 µM and the TGI (RPMI-8226 leukemia) was > 100 µM. The TGI (RXF 393 renal) was > 100 µM, the TGI (SF-268 CNS) was > 100 µM and the TGI (SF-295 CNS) was > 100 µM. For the same molecule, the TGI (SF-539 CNS) was > 100 µM, the TGI (SK-MEL-2 melanoma) was > 100 µM and the TGI (SK-MEL-28 melanoma) was > 100 µM. For the same molecule, the TGI (SK-MEL-5 melanoma) was > 100 µM, the TGI (SK-OV-3 ovarian) was > 100 µM and the TGI (SN12C renal) was > 100 µM. The TGI (SNB-19 CNS) was > 100 µM, the TGI (SNB-75 CNS) was > 100 µM and the TGI (SR leukemia) was > 100 µM. For the same molecule, the TGI (SW-620 colon) was > 100 µM, the TGI (T-47D breast) was > 100 µM and the TGI (TK-10 renal) was > 100 µM. For the same molecule, the TGI (U251 CNS) was > 100 µM, the TGI (UACC-257 melanoma) was > 100 µM and the TGI (UACC-62 melanoma) was > 100 µM.
